The text below walks through data of patent US20080045584A1, “Use of Docetaxel for Treating Hepatocellular Carcinoma” (priority 1999, published 2008).

What is called viability is the share of living cells, or the viability signal relative to a control.

The subject of series [1] is Hep G2 cells. Kind of series: Cell viability study: MTT assay. The class given is cell-based, human. To be noted: for viability: Hep G2, 1 μM. A general note: Formazan colour is commonly taken as a measure of viable cells.
Experimental: (§4) The experiments detailed below involve human hepatoma cell lines Hep3B (ATCC designation HB 8064), HepG2 (ATCC designation HB 8065) and HA22T/VGH, and murine hepatoma cell line Hepa 1-6. These cells were cultured in DMEM (GIBCO, BRL) containing 10% fetal bovine serum (Hyclone), 0.01 mg/ml gentamycin and 0.1 mM non-essential amino acid. Cells were grown in a CO2 incubator at 37° C., with 5% CO2 and 95% filtered air.
(§5) Paclitaxel was dissolved in dimethylsulfoxide (DMSO) and docetaxel was dissolved in ethanol as stock solutions. The final concentration of vehicle was less than 0.1%.
(§6) Cells were cultured in a 96 well cell culture cluster (COSTAR) at a density of 4×10^4 cells/ml. After drug treatment for 24 hours or 72 hours, medium was discarded and replaced with an equal volume (100 μl) of fresh medium containing MTT (0.456 mg/ml; 3-[4,5-Dimethylthiazol-2-yl]2,5-diphenyl-tetrazolium bromide) and incubated for 1.5 hours at 37° C. The fresh medium was then discarded, and 100 μl DMSO was then added. Cell viability was determined by colorimetric comparison by reading OD values from a microplate reader (SPECTRA MAX250) at an absorption wavelength of 570 nm.
(§7) Data are the mean i standard error of mean from duplicate samples of three independent experiments.
Series [2] deals with hepatoma cell lines (Hep G2, Hep 3B, HA22T/VGH and Hepa 1-6). Kind of series: Cell viability study: MTT assay, all lines (FIG. 1). Format: cell-based.
Experimental: as §4, §5, §6, §7
Series [3] concerns Hepa 1-6 cells. Kind of series: Propidium iodide (PI) exclusion assay, flow cytometry. Format: cell-based, murine. The method, then:
(§1) Cells were grown on 5-cm^2 flasks (CORNING) and treated with paclitaxel and docetaxel as set out above. Propidium iodide (10 μg/ml) was then added for 15 minutes incubation at 37° C. Then, medium was collected prior to harvest of the adherent cells. Both suspended and attached cells were collected and resuspended with 500 μl PBS for flow cytometry analysis as set out below. Debris signals were removed by FSC-SSC gating.
(§2) Cells (10000) were analyzed on a Becton Dickinson FACS Calibur flow cytometer using an argon-ion laser (15 mWatt) with incident beam at 488 nm. For PI exclusion assay, red fluorescence was collected through a 585 nm filter and the cell debris signals were removed by FSC-SSC gating. Data were acquired and analyzed using FACS/CELL Quest software on a Power Macintosh 7600/120 computer. Apoptotic cells and cells at specific cycle phases were determined by ModFit LT software.
(§3) Data are mean±standard error of mean from duplicated sample of at least three independent experiments. Cells were treated with drugs for 24-72 hours, and membrane permeability was measured by flowcytometric analysis of propidium exclusion in viable hepatoma cells. Data are the percentage of cells with intact cell membrane as compared to control
(A flow cytometer gives signals particle by particle.)

Series [4] relates to Hep G2 cells. The series is described as above. The class given is cell-based, human. The method, then:
as §1, §2, §3

The subject of series [5] is HA22T/VGH cells. Described as above. Format: cell-based, human. The method, then:
as §1, §2, §3

On to `CC(=O)O[C@@]12CO[C@@H]1C[C@H](O)[C@@]1(C)C(=O)[C@H](O)C3=C(C)[C@@H](OC(=O)[C@H](O)[C@@H](NC(=O)OC(C)(C)C)c4ccccc4)C[C@@](O)([C@@H](OC(=O)c4ccccc4)[C@H]21)C3(C)C` [Docetaxel], for which the viability was 65.03% in series [1] (24 hours) and 48.99% in series [1] (72 hours). Moreover, in series [1] (Hep G2, 10 μM, maximal reduction observed at 1 μM), the “viability at 10 μM compared with 1 μM” value is reported as “no further decrease in viability”. Also, the “cell viability compared with paclitaxel (FIG. 1)” value in series [2] (0.01 and 0.1 μM, in nearly every case) is “decreased viability”. In series [2] (concentrations of up to 1 μM), the “in vitro activity against HCC cells compared with paclitaxel” value is recorded as “significantly higher”. Also, the “percentage of cells with intact cell membrane as compared to control” value (from here on “percentage of cells”) is 94.45 ± 1.9% in series [3] (Hepa 1-6, 24 hrs, 0.01 μM); 83.35 ± 7.2% in series [3] (Hepa 1-6, 24 hrs, 0.1 μM); 81.88 ± 8.7% in series [3] (Hepa 1-6, 24 hrs, 1 μM); 77.18 ± 1.4% in series [3] (Hepa 1-6, 72 hrs, 0.01 μM); 43.94 ± 3.4% in series [3] (Hepa 1-6, 72 hrs, 0.1 μM); 38.90 ± 4.2% in series [3] (Hepa 1-6, 72 hrs, 1 μM). Moreover, the “percentage of cells” value in series [4] (Hep G2, 24 hrs, 0.01 μM) is 94.86 ± 1.3%; in series [4] (Hep G2, 24 hrs, 0.1 μM), 85.49 ± 1.2%; in series [4] (Hep G2, 24 hrs, 1 μM), 81.24 ± 3.2%; in series [4] (Hep G2, 72 hrs, 0.01 μM), 61.06 ± 9.6%; in series [4] (Hep G2, 72 hrs, 0.1 μM) it was 40.03 ± 9.0%; in series [4] (Hep G2, 72 hrs, 1 μM), 27.42 ± 8.8%. Moreover, the “percentage of cells” value in series [5] (24 hrs, 0.01 μM) is reported as 98.66 ± 9.0%; in series [5] (24 hrs, 0.1 μM), 38.71 ± 11.2%; in series [5] (24 hrs, 1 μM) it was 40.79 ± 5.0%; in series [5] (72 hrs, 0.01 μM) it was 55.44 ± 5.6%; in series [5] (72 hrs, 0.01 μM, listed as docetaxel) it was 55.44%; in series [5] (72 hrs, 0.1 μM) it was 21.24 ± 0.4%. In addition, the “percentage of cells” value in series [5] (72 hrs, 1 μM) was 22.03 ± 3.1%.
